Experimental data taken from ChEMBL document CHEMBL1152301, “Substitution of aminomethyl at the meta-position enhances the inactivation of O6-alkylguanine-DNA alkyltransferase by O6-benzylguanine” (J Med Chem, 2008).
Where a chain is given by its changes, count along the chain named. Calls of active or inactive are those of the source. No cut-off for these calls is given here.

Tests used:
[1] = target: T1, Methylated-DNA--protein-cysteine methyltransferase (Homo sapiens) (UniProt P16455)
T1 sequence (whole entry): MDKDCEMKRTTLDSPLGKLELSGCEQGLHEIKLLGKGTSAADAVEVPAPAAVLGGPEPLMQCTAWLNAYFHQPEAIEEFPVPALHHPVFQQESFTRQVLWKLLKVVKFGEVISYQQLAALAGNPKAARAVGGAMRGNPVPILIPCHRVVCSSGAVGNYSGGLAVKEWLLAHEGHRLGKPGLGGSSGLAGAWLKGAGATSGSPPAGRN
Description: Inactivation of histidine6-tagged wild type human recombinant O-6-alkylguanine-DNA-alkyltransferase expressed in Escherichia coli assessed as [3H]methylated protein formation in presence of [3H]methylated calf thymus DNA

[2] = target: T1, Methylated-DNA--protein-cysteine methyltransferase (Homo sapiens); remark: listed apart in the source
Description: Inactivation of histidine6-tagged wild type human recombinant O-6-alkylguanine-DNA-alkyltransferase expressed in Escherichia coli assessed as [3H]methylated protein formation in absence of [3H]methylated calf thymus DNA

[3] = Stability assessed as N6-[2-(hydroxymethyl)-benzyl]-2-aminoadenine formation in aqueous solution; format: physicochemical; conditions: buffer
[4] = target: T1, Methylated-DNA--protein-cysteine methyltransferase (Homo sapiens); assay: Inactivation of histidine6-tagged human recombinant O-6-alkylguanine-DNA-alkyltransferase expressed in Escherichia coli assessed as [3H]methylated protein formation at 1 mM
[5] = tested on: HT-29; assay: Sensitization of human HT-29 cells to BCNU-induced cytotoxicity assessed as survival treated for 2 hrs before BCNU challenge measured after 16 to 18 hrs by colony forming assay; format: functional, cell-based
[6] = target: T1, Methylated-DNA--protein-cysteine methyltransferase (Homo sapiens); assay: Inactivation of human O-6-alkylguanine-DNA-alkyltransferase in human HT-29 cells at 1 uM after 30 mins by reverse-phase HPLC in presence of [3H]methylated calf thymus DNA
[7] = tested on: T2, Methylated-DNA--protein-cysteine methyltransferase (Homo sapiens), P16455 [S159A]
T2 sequence (whole entry): T1 sequence (whole entry) with S159A
Description: Inactivation of histidine6-tagged human recombinant O-6-alkylguanine-DNA-alkyltransferase S159A mutant expressed in Escherichia coli assessed as [3H]methylated protein formation in presence of [3H]methylated calf thymus DNA

[8] = tested on: T2, Methylated-DNA--protein-cysteine methyltransferase (Homo sapiens), P16455 [S159A]; remark: listed apart in the source
Description: Inactivation of histidine6-tagged human recombinant O-6-alkylguanine-DNA-alkyltransferase S159A mutant expressed in Escherichia coli assessed as [3H]methylated protein formation in absence of [3H]methylated calf thymus DNA

Structure (SMILES) | ED50 [1] [µM] | ED50 [2] [µM] | t1/2 [3] [h] | inhibition [4] [%] | Activity [5] | inhibition [6] [%] | ED50 [7] [µM] | ED50 [8] [µM]
Cc1ccccc1COc1nc(N)nc2nc[nH]c12 | 90 | 185 | – | – | – | – | – | –
Nc1nc(NCc2ccccc2CO)c2[nH]cnc2n1 | > 1000 | > 1000 | 50 | < 10 | – | – | – | –
NCc1ccccc1COc1nc(N)nc2nc[nH]c12 | 45 | 80 | – | – | – | – | – | –
NCc1ccc(COc2nc(N)nc3nc[nH]c23)cc1 | 0.053 | 0.23 | – | – | Active | 20 | 0.028 | 0.16
Cc1cccc(COc2nc(N)nc3nc[nH]c23)c1 | 0.16 | 0.25 | – | – | – | – | – | –
Cc1ccc(COc2nc(N)nc3nc[nH]c23)cc1 | – | 0.32 | – | – | – | – | – | –
